Assay results as given in patent US5962502A, “Polyamidic acid derivatives with antigastrin activity, a method for their preparation, and their pharmaceutical use” (priority 1993, dated 1999).

Assays:
[1] = biological target: T1, gastrin receptors or type-B cholecystokinin (CCK-B) receptors (Oryctolagus cuniculus, UniProt P46627); assay: Inhibition of the gastrin-induced increase of cytosolic calcium in rabbit gastric mucous-membrane cells (Fura 2); type: cell-based; conditions: for Ratio IC50 Binding cortex / IC50 (gastric mucous cells): binding values taken from Table 3; for IC50, inhibition of the increase of cytosolic calcium: rabbit gastric mucous cells enriched in parietal cells, gastrin 5×10^-8; for CCK-B-antagonistic activity IC50 (II): data taken from Table 4 (rabbit gastric mucous cells), reprinted in Table 6
T1 construct: Rabbit gastric mucous-membrane cells were prepared by conventional techniques; endogenous in cells; host or cells: freshly isolated rabbit gastric mucosal cells, enriched by elutriation to about 70% parietal cells
T1 sequence (P46627 1-452): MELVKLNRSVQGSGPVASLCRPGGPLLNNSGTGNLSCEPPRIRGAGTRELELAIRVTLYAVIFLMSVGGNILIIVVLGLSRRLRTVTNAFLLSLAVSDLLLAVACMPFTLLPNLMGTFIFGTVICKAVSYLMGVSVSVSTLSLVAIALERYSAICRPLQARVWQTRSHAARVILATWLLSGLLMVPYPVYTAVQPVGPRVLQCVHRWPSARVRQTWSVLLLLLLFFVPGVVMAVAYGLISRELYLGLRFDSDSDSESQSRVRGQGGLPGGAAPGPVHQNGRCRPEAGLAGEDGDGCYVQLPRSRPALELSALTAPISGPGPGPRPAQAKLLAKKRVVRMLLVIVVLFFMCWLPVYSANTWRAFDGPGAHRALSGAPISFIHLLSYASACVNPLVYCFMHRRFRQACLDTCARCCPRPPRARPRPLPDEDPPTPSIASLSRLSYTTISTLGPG
Description: The parietal cells of the gastric mucous membrane are responsible for the secretion of HCl. They have specific membrane receptors which can be activated by gastrin and which have been defined as gastrin receptors or type-B cholecystokinin (CCK-B) receptors. Since it has been observed that the activation of the CCK-B receptors by gastrin leads to an increase in the cytosolic levels of calcium ions, a technique involving the measurement of the increase in intracellular calcium induced by gastrin in the presence and in the absence of the compounds of the invention was used as an index of the antigastrin activity of the compounds. Rabbit gastric mucous-membrane cells were prepared by conventional techniques with the use of collagenase and pronase as digestive enzymes. The cellular preparation obtained by the enzymatic digestion was composed of parietal cells, zymogen cells and mucous-membrane cells. […] The cells were then washed and resuspended in a saline solution buffered with HEPES containing, in mM: […] Each measurement was carried out on cells in suspension (0.8×10^6 /ml) at a thermostatically-controlled temperature of 37° C. and with constant magnetic stirring. The fluorescence was recorded with the use of a spectrofluorometer. The operative wavelengths were 340/380 nm for excitation and 505 nm for emission. […] Biol. Chem. 260 (1985), 3440]. […] The results thus obtained for some compounds of the invention are given in Table 4, which also gives an index derived from the ratio between the peripheral antigastrin activity just described and the displacement activity found in the test on binding to the guinea-pig cortex receptors described above.

central CCK-B receptor = biological target: T2, central CCK-B receptor (Cavia porcellus, UniProt H0VZC5); assay: Inhibition of the binding of [3-H][N-methyl-N-leucine]CCK-8 to guinea-pig cortical membranes; conditions: for IC50: 150 minutes at 25° C.
T2 construct: Cerebral cortices of male white guinea-pigs were thus used; from tissue; host or cells: cerebral cortex membranes of male white guinea-pigs
T2 sequence (H0VZC5 1-426): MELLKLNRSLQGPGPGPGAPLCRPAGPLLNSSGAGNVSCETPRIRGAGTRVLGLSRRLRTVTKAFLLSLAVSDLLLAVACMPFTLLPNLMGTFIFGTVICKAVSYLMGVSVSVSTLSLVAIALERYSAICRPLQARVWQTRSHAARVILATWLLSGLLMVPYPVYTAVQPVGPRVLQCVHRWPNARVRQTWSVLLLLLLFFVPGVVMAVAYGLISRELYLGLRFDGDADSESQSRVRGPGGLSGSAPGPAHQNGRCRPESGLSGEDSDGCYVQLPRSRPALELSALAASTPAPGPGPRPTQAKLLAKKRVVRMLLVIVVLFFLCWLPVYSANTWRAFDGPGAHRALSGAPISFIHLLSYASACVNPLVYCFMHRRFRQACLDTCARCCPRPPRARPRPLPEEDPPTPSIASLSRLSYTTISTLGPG
Description: The ability of the compounds of the invention to interact with the central CCK-B receptor was evaluated with the use of non-sulphated [3-H] […] 225 (3) (1990), 1278-1286].
Cerebral cortices of male white guinea-pigs were thus used, according to the method mentioned above, so as to obtain a membrane content corresponding to about 300 mcg of proteins/ml. The membranes were incubated together with the radioactive tracer and the compounds under test for 150 minutes at 25° C. After the supernatant had been discarded, the radioactivity associated with the pellet was determined with a liquid scintillator. The specific binding was determined as the difference between the binding in the absence and in the presence of 5.10^-6 M CCK-8.

CCK-A = biological target: T3, CCK-A (Cavia porcellus, UniProt Q63931); assay: Anti-CCK-A activity on guinea-pig gall bladder stimulated in vitro by CCK-8; conditions: for Ratio I/II (CCK-A IC50 / CCK-B IC50): gall bladder IC50 over gastric mucous cells IC50; for IC50: guinea-pig gall bladder in vitro, CCK-8 10 ng/ml, read-out: CCK-A-antagonistic activity IC50 (I)
T3 construct: A longitudinal strip of guinea-pig gall-bladder was put in a bath for isolated organs; from tissue; host or cells: guinea-pig gall bladder longitudinal strip
T3 sequence (Q63931 1-430): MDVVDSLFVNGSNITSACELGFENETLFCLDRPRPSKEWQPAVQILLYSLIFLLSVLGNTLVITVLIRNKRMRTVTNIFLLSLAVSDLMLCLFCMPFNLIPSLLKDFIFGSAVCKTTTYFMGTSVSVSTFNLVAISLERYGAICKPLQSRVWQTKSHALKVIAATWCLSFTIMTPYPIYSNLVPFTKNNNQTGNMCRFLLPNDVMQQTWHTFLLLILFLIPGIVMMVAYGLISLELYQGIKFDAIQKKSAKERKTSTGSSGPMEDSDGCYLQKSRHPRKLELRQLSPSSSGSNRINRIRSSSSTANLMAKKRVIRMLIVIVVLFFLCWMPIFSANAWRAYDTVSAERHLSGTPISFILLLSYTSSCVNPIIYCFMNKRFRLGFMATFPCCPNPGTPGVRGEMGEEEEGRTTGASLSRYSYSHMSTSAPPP
Description: The experimental model used was guinea-pig gall bladder stimulated in vitro by CCK-8, with the use of lorglumide as the reference standard. A longitudinal strip of guinea-pig gall-bladder was put in a bath for isolated organs in the presence of Krebs buffer at a temperature of 32° C., with continuous oxygenation with an oxygen-CO2 mixture (95-[…]). The isometric contractions were detected by means of a force transducer and recorded.

SMILES	Ratio IC50 Binding cortex / IC50 (gastric mucous cells) [1]	IC50 order of magnitude, peripheral antigastrin activity ([1]; rabbit gastric mucous cells)	IC50, inhibition of the increase of cytosolic calcium [1]	inhibition of the binding of [N-methyl-N-leucine]CCK-8, result in words (central CCK-B receptor; guinea-pig cortical membranes)	IC50 (central CCK-B receptor; guinea-pig cortical membranes) [nM]	CCK-B-antagonistic activity IC50 (II) [1] [nM]	Ratio I/II (CCK-A IC50 / CCK-B IC50) (CCK-A)	IC50 (CCK-A) [nM]	times more active than the corresponding diastereoisomer at the carbon atom (**) (central CCK-B receptor; binding, guinea-pig cortex)
O=C(CC[C@@H](NC(=O)c1cc(Cl)cc(Cl)c1)C(=O)N1CCC2(CCCC2)CC1)NC(Cc1c[nH]c2ccccc12)C(=O)O (stereo partly drawn) [Compound 19]	5.0	nanomolar order of magnitude	10 nM	potent inhibitors	50	–	–	–	–
CN(C(=O)CC[C@@H](NC(=O)c1cc(Cl)cc(Cl)c1)C(=O)N1CCC2(CCCC2)CC1)C(Cc1ccccc1)C(=O)O (stereo partly drawn) [Compound 11]	3.1	–	70 nM	–	220	–	–	–	–
CN(CC(=O)O)C(=O)CC[C@@H](NC(=O)c1cc(Cl)cc(Cl)c1)C(=O)N1CCC2(CCCC2)CC1 [Compound 2]	0.7	–	1500 nM	–	610	–	–	–	–
CN(C(=O)CC[C@@H](NC(=O)c1cc(Cl)cc(Cl)c1)C(=O)N1CCC2(CCCC2)CC1)[C@@H](Cc1c[nH]c2ccccc12)C(=O)O [Compound 22]	7.6	–	50 nM	–	380	–	–	–	–
Cc1cc(C(=O)O)ccc1NC(=O)CC[C@@H](NC(=O)c1cc(Cl)cc(Cl)c1)C(=O)N1CCC2(CCCC2)CC1 [Compound 52]	1.2	–	2330 nM	–	2770	–	–	–	–
O=C(CC[C@@H](NC(=O)c1cc(Cl)cc(Cl)c1)C(=O)N1CCC2(CCCC2)CC1)N[C@H](COCc1ccccc1)C(=O)O [Compound 23]	4.5	–	60 nM	–	270	–	–	–	–
CC(C)CC(NC(=O)CC[C@@H](NC(=O)c1cc(Cl)cc(Cl)c1)C(=O)N1CCC2(CCCC2)CC1)C(=O)O (stereo partly drawn) [Compound 6]	7.6	–	50 nM	–	380	–	–	–	–
O=C(CC[C@@H](NC(=O)c1cc(Cl)cc(Cl)c1)C(=O)N1CCC2(CCCC2)CC1)NC(CCc1ccccc1)C(=O)O (stereo partly drawn) [Compound 16]	2.0	–	150 nM	–	300	–	–	–	–
O=C(C[C@@H](NC(=O)c1cc(Cl)cc(Cl)c1)C(=O)N1CCC2(CCCC2)CC1)N[C@H](Cc1c[nH]c2ccccc12)C(=O)O [Compound 43]	14.7	–	70 nM	–	1030	–	–	–	–
CC(C)(C)CCNC(=O)[C@@H](CCC(=O)Nc1ccc(C(=O)O)cc1)NC(=O)c1cc(Cl)cc(Cl)c1 [Compound 53]	–	–	IN (IN (inactive) when the IC50 is >3.10^-5 M)	–	6400	–	–	–	–
O=C(CC[C@@H](NC(=O)c1cc(Cl)cc(Cl)c1)C(=O)N1CCC2(CCCC2)CC1)N[C@H](Cc1ccccn1)C(=O)O [Compound 27]	0.6	–	230 nM	–	150	230	14.8	3400	–
CCCCCN(CCCCC)C(=O)C(CCC(=O)O)NC(=O)c1ccc(Cl)c(Cl)c1 (stereo not drawn) [R-lorglumide, reference compound]	–	–	–	–	–	–	–	50	–

Now from value to compound:

Ratio IC50 Binding cortex / IC50 (gastric mucous cells) [1]	IC50 order of magnitude, peripheral antigastrin activity ([1]; rabbit gastric mucous cells)	IC50, inhibition of the increase of cytosolic calcium [1]	inhibition of the binding of [N-methyl-N-leucine]CCK-8, result in words (central CCK-B receptor; guinea-pig cortical membranes)	IC50 (central CCK-B receptor; guinea-pig cortical membranes) [nM]	CCK-B-antagonistic activity IC50 (II) [1] [nM]	Ratio I/II (CCK-A IC50 / CCK-B IC50) (CCK-A)	IC50 (CCK-A) [nM]	times more active than the corresponding diastereoisomer at the carbon atom (**) (central CCK-B receptor; binding, guinea-pig cortex)	SMILES
6.5	–	100 nM	–	650	–	–	–	–	O=C(CC[C@@H](NC(=O)c1cc(Cl)cc(Cl)c1)C(=O)N1CCC2(CCCC2)CC1)N[C@H](CC1CCCCC1)C(=O)O [Compound 28]
4.3	–	30 nM	–	130	30	1527	45800	–	O=C(CC[C@@H](NC(=O)c1cc(Cl)cc(Cl)c1)C(=O)N1CCC2(CCCC2)CC1)N[C@H](Cc1ccc2ccccc2c1)C(=O)O [Compound 24]
3.3	–	60 nM	–	200	–	–	–	–	O=C(CC[C@@H](NC(=O)c1cc(Cl)cc(Cl)c1)C(=O)N1CCC2(CCCC2)CC1)NC(Cc1ccccc1)C(=O)O (stereo partly drawn) [Compound 8]
10.4	–	70 nM	–	730	–	–	–	about twice	CC1(C)CCC(NC(=O)[C@H](CCC(=O)O)NC(=O)CC[C@@H](NC(=O)c2cc(Cl)cc(Cl)c2)C(=O)N2CCC3(CCCC3)CC2)CC1 [Compound 34]
1.6	–	200 nM	–	320	–	–	–	–	O=C(CC[C@@H](NC(=O)c1cc(Cl)cc(Cl)c1)C(=O)N1CCC2(CCCC2)CC1)NC(Cc1ccc(O)cc1)C(=O)O (stereo partly drawn) [Compound 18]
14.2	–	120 nM	–	1700	–	–	–	–	CC1(C)CCC(NC(=O)[C@@H](CCC(=O)O)NC(=O)CC[C@@H](NC(=O)c2cc(Cl)cc(Cl)c2)C(=O)N2CCC3(CCCC3)CC2)CC1 [Compound 35]
4.5	–	380 nM	–	1720	–	–	–	–	O=C(CC[C@@H](NC(=O)c1cc(Cl)cc(Cl)c1)C(=O)N1CCC2(CCCC2)CC1)Nc1ccc(C(=O)O)cc1 [Compound 47]
